Test results: ChEMBL document CHEMBL5325475, “Discovery of a Potent and Selective Tyrosine Kinase 2 Inhibitor: TAK-279” (J Med Chem, 2023)

What was measured:
[1] = in vivo; details: C57Bl/6, mouse, po, 10 mg/kg
[2] = in vivo; details: Sprague-Dawley, rat, po, 10 mg/kg
[3] = in vivo; details: beagle, dog, po, 10 mg/kg
[4] = in vivo; details: cynomolgus monkey, po, 10 mg/kg
[5] = in vivo; details: C57Bl/6, mouse, po, 10 mg/kg; remark: listed apart in the source
[6] = in vivo; details: Sprague-Dawley, rat, po, 10 mg/kg; remark: listed apart in the source
[7] = in vivo; details: beagle, dog, po, 10 mg/kg; remark: listed apart in the source
[8] = in vivo; details: cynomolgus monkey, po, 10 mg/kg; remark: listed apart in the source

| SMILES | half-life [1] [h] | half-life [2] [h] | half-life [3] [h] | half-life [4] [h] | bioavailability [5] [%] | bioavailability [6] [%] | bioavailability [7] [%] | bioavailability [8] [%] |
| --- | --- | --- | --- | --- | --- | --- | --- | --- |
| CNc1cc(Nc2cccn(-c3ccccn3)c2=O)nc2c(C(=O)N[C@H]3CC[C@@H]3OC)cnn12 (single isomer, unassigned) | 2 | 1.2 | 5.3 | 3.8 | 70 | 37 | 47 | 47 |
| CNc1cc(Nc2cccn(-c3ncccc3F)c2=O)nc2c(C(=O)N[C@@H]3C[C@@H]3F)cnn12 | 2.2 | 2.7 | 3 | 1.4 | 52 | 59 | 51 | 97 |
| CNc1cc(Nc2cccn(-c3ncccc3F)c2=O)nc2c(C(=O)N[C@@H]3CC[C@H]3OC)cnn12 | 2.1 | 5.9 | – | – | – | 30 | – | – |
